Experimental data published in PubChem BioAssay AID248 (DTP/NCI, 2004).
Several values for one entry are separate records, joined by “and”; a condition that tells them apart may be missing. Equal values may be shown once. Inconclusive results and toxic doses are left out.

Tested on: L1210 leukemia ip in BDF1 mice, survival T/C
Assay: NCI In Vivo Anticancer Drug Screen. Data for tumor model L1210 Leukemia (intraperitoneal) in B6D2F1 (BDF1) mice
Settings: endpoint: mean survival time, higher = longer survival
How it was run: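 Value reflects the ratio of survival in compound-treated mice to survival in vehicle-treated controls, with both groups carrying the same transplanted tumor.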

[1] = dose: 100.0 mg/kg/injection, schedule: Q01DX001 (ip), vehicle: saline
[2] = dose: 200.0 mg/kg/injection, schedule: Q01DX001 (ip), vehicle: saline
[3] = dose: 100.0 mg/kg/injection, schedule: Q01DX001 (ip), vehicle: carboxymethylcellulose (CMC)
[4] = dose: 200.0 mg/kg/injection, schedule: Q01DX001 (ip), vehicle: carboxymethylcellulose (CMC)
[5] = dose: 400.0 mg/kg/injection, schedule: Q01DX001 (ip), vehicle: carboxymethylcellulose (CMC)
[6] = dose: 100.0 mg/kg/injection, schedule: Q04DX003 (ip), vehicle: Klucel (hydroxypropylcellulose) (HPC)
[7] = dose: 100.0 mg/kg/injection, schedule: Q01DX009 (ip), vehicle: Klucel (hydroxypropylcellulose) (HPC)
[8] = dose: 200.0 mg/kg/injection, schedule: Q01DX009 (ip), vehicle: Klucel (hydroxypropylcellulose) (HPC)
[9] = dose: 200.0 mg/kg/injection, schedule: Q04DX003 (ip), vehicle: Klucel (hydroxypropylcellulose) (HPC)
[10] = dose: 400.0 mg/kg/injection, schedule: Q04DX003 (ip), vehicle: Klucel (hydroxypropylcellulose) (HPC)
[11] = dose: 100.0 mg/kg/injection, schedule: Q04DX003 (ip), vehicle: saline
[12] = dose: 200.0 mg/kg/injection, schedule: Q04DX003 (ip), vehicle: saline
[13] = dose: 50.0 mg/kg/injection, schedule: Q01DX009 (ip), vehicle: saline with Tween-80
[14] = dose: 100.0 mg/kg/injection, schedule: Q01DX009 (ip), vehicle: saline with Tween-80
[15] = dose: 200.0 mg/kg/injection, schedule: Q01DX009 (ip), vehicle: saline with Tween-80
[16] = dose: 100.0 mg/kg/injection, schedule: Q04DX003 (ip), vehicle: saline with Tween-80
[17] = dose: 200.0 mg/kg/injection, schedule: Q04DX003 (ip), vehicle: saline with Tween-80
[18] = dose: 400.0 mg/kg/injection, schedule: Q04DX003 (ip), vehicle: saline with Tween-80
[19] = dose: 100.0 mg/kg/injection, schedule: Q04DX002 (ip), vehicle: Klucel (hydroxypropylcellulose) (HPC)
[20] = dose: 200.0 mg/kg/injection, schedule: Q04DX002 (ip), vehicle: Klucel (hydroxypropylcellulose) (HPC)
[21] = dose: 400.0 mg/kg/injection, schedule: Q04DX002 (ip), vehicle: Klucel (hydroxypropylcellulose) (HPC)
[22] = dose: 400.0 mg/kg/injection, schedule: Q01DX009 (ip), vehicle: Klucel (hydroxypropylcellulose) (HPC)

## CC1([CH2][Hg][I])CS(=O)(=O)CC(C)([CH2][Hg][I])O1 (stereo not given)
dose: 5.0 mg/kg/injection, schedule: Q01DX001 (ip), vehicle: saline
  T/C: 104 % of control
dose: 5.0 mg/kg/injection, schedule: Q01DX015 (ip), vehicle: saline
  T/C: 94 % of control
dose: 10.0 mg/kg/injection, schedule: Q01DX001 (ip), vehicle: saline
  T/C: 104 % of control
dose: 10.0 mg/kg/injection, schedule: Q01DX015 (ip), vehicle: saline
  T/C: 97 % of control
dose: 20.0 mg/kg/injection, schedule: Q01DX001 (ip), vehicle: saline
  T/C: 96 % of control
dose: 20.0 mg/kg/injection, schedule: Q01DX015 (ip), vehicle: saline
  T/C: 102 % of control
dose: 40.0 mg/kg/injection, schedule: Q01DX001 (ip), vehicle: saline
  T/C: 98 % of control
dose: 40.0 mg/kg/injection, schedule: Q01DX015 (ip), vehicle: saline
  T/C: 108 % of control
dose: 80.0 mg/kg/injection, schedule: Q01DX001 (ip), vehicle: saline
  T/C: 104 % of control

## O=P(c1ccccc1)(c1ccccc1)c1ccccc1
dose: 50.0 mg/kg/injection, schedule: Q01DX001 (ip), vehicle: saline
  T/C: 102 % of control
[1]
  T/C: 98 % of control
[2]
  T/C: 98 % of control

## CC1(C)N=C(N)N=C(N)N1c1ccc(OCCCOc2ccc(S(=O)(=O)F)cc2)c(Cl)c1
dose: 25.0 mg/kg/injection, schedule: Q01DX009 (ip), vehicle: saline
  T/C: 100 % of control

## CC1(C)Oc2c(ccc(O)c2CN2CCOCC2)C2=C1CCCC2
[3]
  T/C: 93 % of control
[4]
  T/C: 96 % of control
[5]
  T/C: 91 % of control

## CS(=O)(=O)OCCN(CCOS(C)(=O)=O)c1ccc(C=Nc2ccc3ccccc3c2)cc1
dose: 20.0 mg/kg/injection, schedule: Q04DX003 (ip), vehicle: Klucel (hydroxypropylcellulose) (HPC)
  T/C: 110 % of control
dose: 40.0 mg/kg/injection, schedule: Q04DX003 (ip), vehicle: Klucel (hydroxypropylcellulose) (HPC)
  T/C: 117 % of control
dose: 53.3 mg/kg/injection, schedule: Q04DX003 (ip), vehicle: Klucel (hydroxypropylcellulose) (HPC)
  T/C: 152 % of control
[6]
  T/C: 120 % of control
dose: 120.0 mg/kg/injection, schedule: Q04DX003 (ip), vehicle: Klucel (hydroxypropylcellulose) (HPC)
  T/C: 95 % of control and 100 % of control

## CC(=O)Nc1ccc(Oc2ccccc2)cc1
dose: 50.0 mg/kg/injection, schedule: Q01DX009 (ip), vehicle: Klucel (hydroxypropylcellulose) (HPC)
  T/C: 102 % of control
[7]
  T/C: 101 % of control
[6]
  T/C: 95 % of control and 101 % of control
[8]
  T/C: 106 % of control
[9]
  T/C: 97 % of control and 100 % of control
[10]
  T/C: 102 % of control

## CCN(CC)CC(N)=O
[11]
  T/C: 103 % of control
[12]
  T/C: 103 % of control
dose: 400.0 mg/kg/injection, schedule: Q04DX003 (ip), vehicle: saline
  T/C: 111 % of control

## COc1cc2c(cc1OC)C(c1ccc(O)c(O)c1)CNC2 (stereo not given)
[13]
  T/C: 101 % of control
[14]
  T/C: 100 % of control
[15]
  T/C: 95 % of control

## O=[N+]([O-])c1ccc(N=C(Cl)c2ccccc2)cc1
[16]
  T/C: 98 % of control
[17]
  T/C: 98 % of control
[18]
  T/C: 104 % of control

## O=C(Nc1ccccc1)c1ccc(C(=O)Nc2ccccc2)cc1
[3]
  T/C: 86 % of control
dose: 100.0 mg/kg/injection, schedule: Q01DX001 (oral), vehicle: carboxymethylcellulose (CMC)
  T/C: 108 % of control
dose: 100.0 mg/kg/injection, schedule: Q01DX009 (ip), vehicle: carboxymethylcellulose (CMC)
  T/C: 101 % of control
dose: 100.0 mg/kg/injection, schedule: Q01DX009 (oral), vehicle: carboxymethylcellulose (CMC)
  T/C: 103 % of control
[4]
  T/C: 87 % of control
dose: 200.0 mg/kg/injection, schedule: Q01DX001 (oral), vehicle: carboxymethylcellulose (CMC)
  T/C: 108 % of control
dose: 200.0 mg/kg/injection, schedule: Q01DX009 (ip), vehicle: carboxymethylcellulose (CMC)
  T/C: 100 % of control
dose: 200.0 mg/kg/injection, schedule: Q01DX009 (oral), vehicle: carboxymethylcellulose (CMC)
  T/C: 105 % of control
[5]
  T/C: 87 % of control
dose: 400.0 mg/kg/injection, schedule: Q01DX001 (oral), vehicle: carboxymethylcellulose (CMC)
  T/C: 104 % of control
dose: 400.0 mg/kg/injection, schedule: Q01DX009 (ip), vehicle: carboxymethylcellulose (CMC)
  T/C: 95 % of control
dose: 400.0 mg/kg/injection, schedule: Q01DX009 (oral), vehicle: carboxymethylcellulose (CMC)
  T/C: 111 % of control
dose: 800.0 mg/kg/injection, schedule: Q01DX001 (ip), vehicle: carboxymethylcellulose (CMC)
  T/C: 92 % of control
dose: 800.0 mg/kg/injection, schedule: Q01DX001 (oral), vehicle: carboxymethylcellulose (CMC)
  T/C: 106 % of control
dose: 800.0 mg/kg/injection, schedule: Q01DX009 (ip), vehicle: carboxymethylcellulose (CMC)
  T/C: 97 % of control

## OC1C2CC3CC(C2)CC1C3 (stereo not given)
[19]
  T/C: 102 % of control
[20]
  T/C: 98 % of control
[21]
  T/C: 94 % of control

## CCCCC(=O)c1ccc(OC)cc1
[7]
  T/C: 100 % of control
[6]
  T/C: 96 % of control
[8]
  T/C: 105 % of control
[9]
  T/C: 102 % of control
[22]
  T/C: 102 % of control
[10]
  T/C: 93 % of control

## NC(CCSSCCC(N)C(=O)O)C(=O)O (stereo not given)
dose: 12.5 mg/kg/injection, schedule: Q04DX002 (ip), vehicle: Klucel (hydroxypropylcellulose) (HPC)
  T/C: 113 % of control
dose: 25.0 mg/kg/injection, schedule: Q04DX002 (ip), vehicle: Klucel (hydroxypropylcellulose) (HPC)
  T/C: 97 % of control
dose: 50.0 mg/kg/injection, schedule: Q04DX002 (ip), vehicle: Klucel (hydroxypropylcellulose) (HPC)
  T/C: 103 % of control
[6]
  T/C: 93 % of control
[9]
  T/C: 101 % of control
[10]
  T/C: 93 % of control

## N#C/C(=C\c1ccco1)C1CCCCC1
dose: 100.0 mg/kg/injection, schedule: Q04DX002 (ip), vehicle: other
  T/C: 86 % of control
dose: 200.0 mg/kg/injection, schedule: Q04DX002 (ip), vehicle: other
  T/C: 104 % of control

## O=C(O)/C=C/C(=O)Nc1cccc(C(F)(F)F)c1
[19]
  T/C: 100 % of control
[20]
  T/C: 100 % of control
[21]
  T/C: 96 % of control

## COc1cc(/C=C/C(C)=O)ccc1O
[13]
  T/C: 101 % of control
[14]
  T/C: 101 % of control
[16]
  T/C: 93 % of control
[15]
  T/C: 98 % of control
[17]
  T/C: 98 % of control
[18]
  T/C: 98 % of control

## COc1ccc(Cl)cc1NC(=O)c1ccco1
[7]
  T/C: 89 % of control
[8]
  T/C: 87 % of control
[22]
  T/C: 97 % of control

## C=C/C=C/CCN1CC1
dose: 12.5 mg/kg/injection, schedule: Q04DX003 (ip), vehicle: Klucel (hydroxypropylcellulose) (HPC)
  T/C: 114 % of control
dose: 25.0 mg/kg/injection, schedule: Q04DX003 (ip), vehicle: Klucel (hydroxypropylcellulose) (HPC)
  T/C: 112 % of control
dose: 50.0 mg/kg/injection, schedule: Q04DX003 (ip), vehicle: Klucel (hydroxypropylcellulose) (HPC)
  T/C: 106 % of control

## CC(C)(C)C(=O)CC(=O)C(C)(C)C.CC(C)(C)C(=O)CC(=O)C(C)(C)C.CC(C)(C)C(=O)CC(=O)C(C)(C)C.[Yb]
dose: 100.0 mg/kg/injection, schedule: Q01DX005 (ip), vehicle: Klucel (hydroxypropylcellulose) (HPC)
  T/C: 97 % of control
[7]
  T/C: 97 % of control
[19]
  T/C: 96 % of control
dose: 200.0 mg/kg/injection, schedule: Q01DX005 (ip), vehicle: Klucel (hydroxypropylcellulose) (HPC)
  T/C: 105 % of control
[8]
  T/C: 97 % of control
[20]
  T/C: 107 % of control
dose: 400.0 mg/kg/injection, schedule: Q01DX005 (ip), vehicle: Klucel (hydroxypropylcellulose) (HPC)
  T/C: 101 % of control
[22]
  T/C: 97 % of control
[21]
  T/C: 96 % of control

## COc1c2c(cc3c1C1(O)Cc4ccc5c(c4C[N+]1(C)CC3)OCO5)OCO2 (stereo not given)
[1]
  T/C: 95 % of control
[2]
  T/C: 91 % of control

## C=CCOC(=O)COCC(=O)OCC=C
[11]
  T/C: 97 % of control
[12]
  T/C: 88 % of control

## CC(C)(C)C1CCC2(CC1)CCN(N1CCCCCC1)CC2
dose: 50.0 mg/kg/injection, schedule: Q01DX001 (ip), vehicle: carboxymethylcellulose (CMC)
  T/C: 101 % of control
[3]
  T/C: 111 % of control
[4]
  T/C: 95 % of control
[5]
  T/C: 103 % of control
